The results in this text go back to patent publication US20240239861A1, “GLUCAGON-RECEPTOR SELECTIVE POLYPEPTIDES AND METHODS OF USE THEREOF” (i2O Therapeutics, Inc., priority 2016, published 2024).

Structures are written as SMILES. Where a SMILES comes first, the peptide text is derived from it. [ ]: non-standard residue; d: D form. Aib = CC(C)(N)C(=O)O A value given as a limit tells only on which side of the number the result lay.

Broadly, the EC50 is the concentration needed to bring the measured effect to its halfway point. A low value points to higher potency in that assay.

The target in one assay is human GCGR (Homo sapiens, UniProt P47871). Briefly: Peptide-receptor mediated cAMP accumulation (LANCE Ultra cAMP) in CHO-K1 cells transfected with human GCGR. Type of assay: cell-based. The following applies: Table 3. In general terms: Cyclic AMP is a second messenger, typically raised through Gs and lowered through Gi signalling.
human GCGR, sequence (P47871 26-477): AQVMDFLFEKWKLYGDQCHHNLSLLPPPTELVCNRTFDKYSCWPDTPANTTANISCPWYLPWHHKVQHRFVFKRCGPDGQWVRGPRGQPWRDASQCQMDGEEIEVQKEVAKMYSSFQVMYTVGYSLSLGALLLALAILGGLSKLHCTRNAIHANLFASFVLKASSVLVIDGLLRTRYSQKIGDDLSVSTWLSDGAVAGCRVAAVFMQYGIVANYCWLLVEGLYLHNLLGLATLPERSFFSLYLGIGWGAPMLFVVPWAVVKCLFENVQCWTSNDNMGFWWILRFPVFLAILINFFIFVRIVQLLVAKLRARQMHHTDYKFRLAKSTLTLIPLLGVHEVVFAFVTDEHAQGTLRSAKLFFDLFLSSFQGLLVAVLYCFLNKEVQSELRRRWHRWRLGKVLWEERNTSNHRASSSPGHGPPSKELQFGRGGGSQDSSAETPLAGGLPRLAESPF
Another assay addresses human GLP-1R (Homo sapiens, UniProt P43220). Briefly: Peptide-receptor mediated cAMP accumulation (LANCE Ultra cAMP) in CHO-K1 cells transfected with human GLP-1R. Type of assay: cell-based. The following applies: hGLP1 pEC50 (cAMP mean (n = 3): 11 point curve starting at 1 nM, Table 3).

human GLP-1R, sequence (P43220 24-463): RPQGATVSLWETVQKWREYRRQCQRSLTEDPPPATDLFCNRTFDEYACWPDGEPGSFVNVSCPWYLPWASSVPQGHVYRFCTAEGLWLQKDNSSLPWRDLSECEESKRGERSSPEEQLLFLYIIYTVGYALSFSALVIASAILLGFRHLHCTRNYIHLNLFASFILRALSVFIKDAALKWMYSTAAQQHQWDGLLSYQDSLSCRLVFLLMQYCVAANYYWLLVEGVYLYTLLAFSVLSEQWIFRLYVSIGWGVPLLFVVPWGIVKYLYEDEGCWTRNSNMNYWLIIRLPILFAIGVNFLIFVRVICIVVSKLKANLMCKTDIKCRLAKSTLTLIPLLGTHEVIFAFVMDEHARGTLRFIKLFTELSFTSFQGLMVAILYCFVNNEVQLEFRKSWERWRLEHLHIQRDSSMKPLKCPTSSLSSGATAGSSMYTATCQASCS

As to `CC(C)C[C@H](NC(=O)[C@H](Cc1ccc(O)cc1)NC(=O)[C@H](CCCCN)NC(=O)[C@H](CO)NC(=O)[C@H](Cc1ccc(O)cc1)NC(=O)[C@H](CC(=O)O)NC(=O)[C@H](CO)NC(=O)[C@@H](NC(=O)[C@H](Cc1ccccc1)NC(=O)[C@@H](NC(=O)CNC(=O)[C@H](Cc1c[nH]cn1)NC(=O)[C@H](CO)NC(=O)[C@@H](N)Cc1ccc(O)cc1)[C@@H](C)O)[C@@H](C)O)C(=O)N[C@@H](CC(=O)O)C(=O)NC(C)(C)C(=O)N[C@@H](CCC(=O)O)C(=O)N[C@@H](CCCNC(=N)N)C(=O)N[C@@H](C)C(=O)N[C@@H](CCC(N)=O)C(=O)N[C@@H](CCC(=O)O)C(=O)N[C@@H](Cc1ccccc1)C(=O)N[C@H](C(=O)NC(C)(C)C(=O)N[C@@H](Cc1c[nH]c2ccccc12)C(=O)N[C@@H](CC(C)C)C(=O)N[C@@H](CCC(=O)O)C(=O)N[C@@H](CC(=O)O)C(=O)N[C@@H](CCC(=O)O)C(=O)N1CCC[C@H]1C(=O)N[C@@H](CO)C(=O)N[C@@H](CO)C(=O)NCC(=O)N[C@@H](C)C(=O)N1CCC[C@H]1C(=O)N1CCC[C@H]1C(=O)N1CCC[C@H]1C(=O)N[C@@H](CO)C(=O)O)C(C)C` [Compound A17] (H-YSHGTFTSDYSKYLD[Aib]ERAQEFV[Aib]WLEDEPSSGAPPPS-OH), the EC50 on human GCGR is 0.00794 nM; at human GLP-1R, above 1 nM.
The matching figures for `CC(C)C[C@H](NC(=O)[C@H](Cc1c[nH]c2ccccc12)NC(=O)[C@H](CCCCN)NC(=O)[C@H](CO)NC(=O)[C@H](Cc1ccc(O)cc1)NC(=O)[C@H](CC(=O)O)NC(=O)[C@H](CO)NC(=O)[C@@H](NC(=O)[C@H](Cc1ccccc1)NC(=O)[C@@H](NC(=O)CNC(=O)[C@H](Cc1c[nH]cn1)NC(=O)[C@H](CO)NC(=O)[C@@H](N)Cc1ccc(O)cc1)[C@@H](C)O)[C@@H](C)O)C(=O)N[C@@H](CC(=O)O)C(=O)NC(C)(C)C(=O)N[C@@H](CO)C(=O)N[C@@H](CCCNC(=N)N)C(=O)N[C@@H](C)C(=O)N[C@@H](CCC(N)=O)C(=O)N[C@@H](CCC(=O)O)C(=O)N[C@@H](Cc1ccccc1)C(=O)N[C@H](C(=O)NC(C)(C)C(=O)N[C@@H](Cc1c[nH]c2ccccc12)C(=O)N[C@@H](CC(C)C)C(=O)N[C@@H](CCC(=O)O)C(=O)N[C@@H](CC(=O)O)C(=O)N[C@@H](CCC(=O)O)C(=O)N1CCC[C@H]1C(=O)N[C@@H](CO)C(=O)N[C@@H](CO)C(=O)NCC(=O)N[C@@H](C)C(=O)N1CCC[C@H]1C(=O)N1CCC[C@H]1C(=O)N1CCC[C@H]1C(=O)N[C@@H](CO)C(=O)O)C(C)C` [Compound A19] (H-YSHGTFTSDYSKWLD[Aib]SRAQEFV[Aib]WLEDEPSSGAPPPS-OH; N-terminus assumed): 0.01 nM and above 1 nM.
In the same order, the values of `CC(C)C[C@H](NC(=O)[C@H](Cc1ccc(O)cc1)NC(=O)[C@H](CCCCN)NC(=O)[C@H](CO)NC(=O)[C@H](Cc1ccc(O)cc1)NC(=O)[C@H](CC(=O)O)NC(=O)[C@H](CO)NC(=O)[C@@H](NC(=O)[C@H](Cc1ccccc1)NC(=O)[C@@H](NC(=O)CNC(=O)[C@H](Cc1c[nH]cn1)NC(=O)[C@H](CO)NC(=O)[C@@H](N)Cc1ccc(O)cc1)[C@@H](C)O)[C@@H](C)O)C(=O)N[C@@H](CC(=O)O)C(=O)NC(C)(C)C(=O)N[C@@H](CCCCN)C(=O)N[C@@H](CCCNC(=N)N)C(=O)N[C@@H](C)C(=O)N[C@@H](CCC(N)=O)C(=O)N[C@@H](CCC(=O)O)C(=O)N[C@@H](Cc1ccccc1)C(=O)N[C@H](C(=O)NC(C)(C)C(=O)N[C@@H](Cc1c[nH]c2ccccc12)C(=O)N[C@@H](CC(C)C)C(=O)N[C@@H](CCC(=O)O)C(=O)N[C@@H](CC(=O)O)C(=O)N[C@@H](CCC(=O)O)C(=O)N1CCC[C@H]1C(=O)N[C@@H](CO)C(=O)N[C@@H](CO)C(=O)NCC(=O)N[C@@H](CCC(=O)O)C(=O)N1CCC[C@H]1C(=O)N1CCC[C@H]1C(=O)N1CCC[C@H]1C(=O)N[C@@H](CO)C(=O)O)C(C)C` [Compound A21] (H-YSHGTFTSDYSKYLD[Aib]KRAQEFV[Aib]WLEDEPSSGEPPPS-OH; N-terminus assumed) are 0.00794 nM and above 1 nM.
